According to US20240180883A1, “TREATMENT OF MIGRAINE” (Allergan Pharmaceuticals International Limited, priority 2020, published 2024):
“And” between values parts separate entries of the source, which are not always exact repeats. Equal values may be shown once. Read-outs that look alike come from different tables or passages of the source.

Key:
[1] = Study A: drug interaction PK with verapamil or ketoconazole; type: in vivo, human; conditions: for AUC(0-inf) / half-life / Cmax / Tmax: human, plasma, oral
Excerpt: Study A (verapamil and ketoconazole) comprised 3 treatment periods.
Healthy adults aged 19-50 years for Study A and 18-45 years for Study B were eligible to participate. […] For study B, participants had to have a BMI between 18.0 and 30 kg/m^2. Exclusion criteria for both studies included hypersensitivity to any study drug; exposure to hepatitis B virus, hepatitis C virus, or HIV; or use of any drug or substance known to affect CYP enzymes or P-gp.

[2] = test system: adult patients with migraine; experiment: Phase 3 Study 2 (NCT02867709) migraine efficacy; type: in vivo, human; conditions: Study 2, 50 mg
Excerpt: In two randomized, double-blind, placebo-controlled, Ph. […] Of the ubrogepant-treated patients in these two studies, approximately 89% were female, 82% were white, 15% were Black, and 17% were of Hispanic or Latino ethnicity. The mean age at study entry was 41 years (range of 18-75 years).
In all studies, patients were instructed to treat a migraine with moderate to severe headache pain intensity. […] Up to 23% of patients were taking preventive medications for migraine at baseline. None of these patients were on concomitant preventive medication that act on the CGRP pathway.
The primary efficacy analyses were conducted in patients who treated a migraine with moderate to severe pain. […] Pain freedom was defined as a reduction of moderate or severe headache pain to no pain, and MBS freedom was defined as the absence of the self-identified MBS (i.e., photophobia, phonophobia, or nausea). Among patients who selected an MBS, the most commonly selected was photophobia (56%), followed by phonophobia (24%) and nausea (19%).
Table 14 also presents the results of the analyses of the percentage of patients achieving pain relief at 2 hours (defined as a reduction in migraine pain from moderate or severe to mild or none) post-dose and the percentage of patients achieving sustained pain freedom between 2 to 24 hours post-dose.

[3] = Phase 1 food effect study, 100 mg tablet fed vs fasted; type: in vivo, human; conditions: for AUC(0-inf) / AUC(0-t) / Cmax / Tmax / Vd/F / half-life: both sexes, human, plasma, oral, 100 mg; for Vd/F: read-out: Vz/F, arithmetic mean (CV %); for half-life: read-out: t1/2, mean (CV %) (converted)
Protocol: The treatments were administered in 1 of 2 sequences in periods 1 and 2 with a washout period of at least 7 days between each treatment.
Eighteen healthy participants with a mean age of 28.4 years (range: 20 to 39 years) were enrolled. The majority of participants were male (14 of 18, 77.8%). […] Mean (SD) weight was 75.99 ([…]) kg and mean (SD) BMI was 25.03 (3.290) kg/m2. Participants were randomly assigned one of two treatments in 1 of 2 sequences in Periods 1 and 2, with a washout period of at least 7 days between each study treatment.
For fed participants, the standardized high-fat (approximately 50% of total caloric content of the meal) and high-calorie (total of approximately 800 to 1000 calories) breakfast derived approximately 150 calories from protein, 250 calories from carbohydrates, and 500 to 600 calories from fat. An example of a high-fat breakfast meal would be 2 eggs fried in butter, 2 strips of bacon, 2 slices of toast with butter, 4 ounces of hash brown potatoes, and 8 ounces of whole milk. […] Participants who were randomly assigned to receive ubrogepant under fed conditions were required to consume the high-fat, high-calorie breakfast in full. For all participants, no food was allowed for 4 hours following study treatment administration. Water was allowed as desired except for 1 hour before and 1 hour after study treatment administration.

BCRP = molecular target: T1, BCRP (Homo sapiens, UniProt Q9UNQ0); experiment: BCRP transporter substrate in vitro; type: in vitro ADME
T1 sequence (Q9UNQ0 1-655): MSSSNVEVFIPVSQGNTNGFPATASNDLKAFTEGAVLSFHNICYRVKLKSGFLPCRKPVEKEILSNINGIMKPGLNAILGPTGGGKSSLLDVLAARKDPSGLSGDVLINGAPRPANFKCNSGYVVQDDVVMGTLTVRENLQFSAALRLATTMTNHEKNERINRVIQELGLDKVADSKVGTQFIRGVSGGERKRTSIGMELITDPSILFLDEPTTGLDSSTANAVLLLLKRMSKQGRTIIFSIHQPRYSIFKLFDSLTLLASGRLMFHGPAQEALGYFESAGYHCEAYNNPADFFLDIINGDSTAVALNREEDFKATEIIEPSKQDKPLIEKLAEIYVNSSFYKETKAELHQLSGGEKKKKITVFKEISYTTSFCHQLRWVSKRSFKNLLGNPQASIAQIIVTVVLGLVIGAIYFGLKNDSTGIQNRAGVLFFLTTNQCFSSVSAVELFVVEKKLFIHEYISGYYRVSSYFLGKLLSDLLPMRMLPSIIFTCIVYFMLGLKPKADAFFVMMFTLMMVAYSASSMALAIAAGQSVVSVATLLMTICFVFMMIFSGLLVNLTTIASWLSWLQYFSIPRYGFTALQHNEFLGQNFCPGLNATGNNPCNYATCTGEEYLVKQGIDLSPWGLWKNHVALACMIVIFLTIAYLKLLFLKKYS

C[C@@H]1[C@H](c2ccccc2)C[C@H](NC(=O)c2cnc3c(c2)C[C@@]2(C3)C(=O)Nc3ncccc32)C(=O)N1CC(F)(F)F [ubrogepant, (3′S)-N-((3S,5S,6R)-6-methyl-2-oxo-5-phenyl-1-(2,2,2-trifluoroethyl)piperidin-3-yl)-2′-oxo-1′,2′,5,7-etrahydrospiro[cyclopenta[b]pyridine-6,3′-pyrrolo[2,3-b]pyridine]-3-carboxamide]
increase in ubrogepant Cmax ([1]; coadministered with verapamil 240 mg vs alone): ~2.8 fold | AUC(0-inf) ([1]; 20 mg, ubrogepant 20 mg alone (Table 9), read-out: AUC0-∞, AM): 213 ng·h/mL | AUC(0-inf) ([1]; 20 mg, ubrogepant 20 mg alone, read-out: AUC0-∞, mean (SD)): 213 ng·h/mL | half-life ([1]; 20 mg, ubrogepant 20 mg alone, read-out: Apparent terminal t1/2, mean (SD) (converted)): 2.5 h | Cmax ([1]; 20 mg, ubrogepant 20 mg alone, read-out: Cmax, mean (SD)): 45.2 ng/mL | Tmax ([1]; 20 mg, ubrogepant 20 mg alone, read-out: Tmax, median (range)): 2 h | AUC(0-inf) ([1]; ubrogepant 20 mg + ketoconazole 400 mg, read-out: AUC0-∞, mean (SD)): 2070 ng·h/mL | half-life ([1]; ubrogepant 20 mg + ketoconazole 400 mg, read-out: Apparent terminal t1/2, mean (SD) (converted)): 5.9 h | Cmax ([1]; ubrogepant 20 mg + ketoconazole 400 mg, read-out: Cmax, mean (SD)): 240 ng/mL | Tmax ([1]; ubrogepant 20 mg + ketoconazole 400 mg, read-out: Tmax, median (range)): 2.5 h | AUC(0-inf) ([1]; ubrogepant 20 mg with verapamil 240 mg, read-out: AUC0-∞, AM): 742 ng·h/mL | half-life ([1]; ubrogepant 20 mg with verapamil 240 mg, read-out: Apparent terminal t1/2, AM (converted)): 4.29 h | Cmax ([1]; ubrogepant 20 mg with verapamil 240 mg, read-out: Cmax, AM): 125 ng/mL | Tmax ([1]; ubrogepant 20 mg with verapamil 240 mg, read-out: Tmax): 2 h | Apparent terminal t1/2, mean (SD) ([1]; ubrogepant 20 mg + ketoconazole 400 mg): 6.00 (1.27) h | Apparent terminal t1/2, mean (SD) ([1]; ubrogepant 20 mg alone): 2.52 (0.56) h and 2.52 h | exposure of ubrogepant on co-administration ([1]; with ketoconazole, a strong CYP3A4 inhibitor): significant increase in exposure | exposure of ubrogepant on co-administration ([1]; with verapamil, a moderate CYP3A4 inhibitor): increase in ubrogepant exposure | Most Bothersome Symptom Free at 2 hours, % Responders [2]: 38.9% | Most Bothersome Symptom Free at 2 hours, Difference from Placebo [2]: 11.5% | Pain Relief at 2 hours, % Responders [2]: 62.7% | Pain free at 2 hours, % Responders [2]: 21.8% | Pain free at 2 hours, Difference from Placebo [2]: 7.5% | Sustained pain freedom at 2-24 hours, % Responders [2]: 14.4% | effect of a high fat meal on extent of exposure (AUC0-t and AUC0-inf) ([3]; 1 × 100 mg tablet): did not affect the extent of exposure | CL/F, arithmetic mean (CV %) ([3]; 1 × 100 mg tablet, fasted): 77.29 (29.9) L/h | Tmax, median (minimum − maximum) ([3]; 1 × 100 mg tablet, fasted): 1.00 (1.00-3.00) h | t1/2, mean (CV %) ([3]; 1 × 100 mg tablet, fasted): 4.99 (23.0) h | CL/F, arithmetic mean (CV %) ([3]; 1 × 100 mg tablet, fed): 76.55 (24.1) L/h | Tmax, median (minimum − maximum) ([3]; 1 × 100 mg tablet, fed): 3.00 (0.50-4.00) h | t1/2, mean (CV %) ([3]; 1 × 100 mg tablet, fed): 4.64 (11.1) h | maximum exposure (Cmax) lower under fed versus fasted conditions ([3]; 1 × 100 mg tablet, high fat meal): approximately 22% | AUC(0-inf) ([3]; 1 × 100 mg tablet, fasted, read-out: AUC0-inf, geometric mean (geometric CV %)): 1360 ng·h/mL | AUC(0-t) ([3]; 1 × 100 mg tablet, fasted, read-out: AUC0-t, geometric mean (geometric CV %)): 1330 ng·h/mL | Cmax ([3]; 1 × 100 mg tablet, fasted, read-out: Cmax, geometric mean (geometric CV %)): 334 ng/mL | AUC(0-inf) ([3]; 1 × 100 mg tablet, fasted, read-out: GLSM AUC0-inf): 1370 ng·h/mL | AUC(0-t) ([3]; 1 × 100 mg tablet, fasted, read-out: GLSM AUC0-t): 1340 ng·h/mL | Cmax ([3]; 1 × 100 mg tablet, fasted, read-out: GLSM Cmax): 336 ng/mL | Tmax ([3]; 1 × 100 mg tablet, fasted, read-out: Tmax, median (minimum − maximum)): 1 h | Vd/F ([3]; 1 × 100 mg tablet, fasted): 536 L | half-life ([3]; 1 × 100 mg tablet, fasted): ~5 h | AUC(0-inf) ([3]; 1 × 100 mg tablet, fed, read-out: AUC0-inf, geometric mean (geometric CV %)): 1340 ng·h/mL | AUC(0-t) ([3]; 1 × 100 mg tablet, fed, read-out: AUC0-t, geometric mean (geometric CV %)): 1320 ng·h/mL | Cmax ([3]; 1 × 100 mg tablet, fed, read-out: Cmax, geometric mean (geometric CV %)): 262 ng/mL | AUC(0-inf) ([3]; 1 × 100 mg tablet, fed, read-out: GLSM AUC0-inf): 1350 ng·h/mL | AUC(0-t) ([3]; 1 × 100 mg tablet, fed, read-out: GLSM AUC0-t): 1330 ng·h/mL | Cmax ([3]; 1 × 100 mg tablet, fed, read-out: GLSM Cmax): 263 ng/mL | Tmax ([3]; 1 × 100 mg tablet, fed, read-out: Tmax, median (minimum − maximum)): 3 h | Vd/F ([3]; 1 × 100 mg tablet, fed): 507 L | half-life ([3]; 1 × 100 mg tablet, fed): ~5 h | Tmax ([3]; 1 × 100 mg tablet, read-out: Tmax median difference (fed−fasted)): 2 h | GMR AUC0-inf ([3]; fed vs fasted): 98.89% | GMR AUC0-t ([3]; fed vs fasted): 98.88% | GMR Cmax ([3]; fed vs fasted): 78.39% | substrate of BCRP transporter (BCRP): substrate
